Where two headings read alike, the source gives them in different places.
Key:
QPCTL = QPCTL (Homo sapiens (Human), UniProt Q9NXS2); assay: Assay A: biochemical QPCTL activity assay (MALDI-TOF MS); conditions: read-out: Inhibition of QPCTL: IC50
How it was run: (§1)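 Compounds preincubated 10 min at 24 °C with enzyme in 20 mM Tris pH 7.5, 0.1 mM TCEP, 0.01% BSA, 0.001% Tween20; CD47 peptide substrate (final 10 μM for QPCTL, 20 μM for QPCT) reacted 40 min at 24 °C. Pyroglutamate product read by MALDI-TOF MS versus internal standard, normalized to controls; four-parameter fit.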

QPCT = QPCT (Homo sapiens (Human), UniProt Q16769); assay: Assay A: biochemical QPCT activity assay (MALDI-TOF MS); conditions: read-out: Inhibition of QPCT: IC50
Sequence of QPCT (Q16769 29-361): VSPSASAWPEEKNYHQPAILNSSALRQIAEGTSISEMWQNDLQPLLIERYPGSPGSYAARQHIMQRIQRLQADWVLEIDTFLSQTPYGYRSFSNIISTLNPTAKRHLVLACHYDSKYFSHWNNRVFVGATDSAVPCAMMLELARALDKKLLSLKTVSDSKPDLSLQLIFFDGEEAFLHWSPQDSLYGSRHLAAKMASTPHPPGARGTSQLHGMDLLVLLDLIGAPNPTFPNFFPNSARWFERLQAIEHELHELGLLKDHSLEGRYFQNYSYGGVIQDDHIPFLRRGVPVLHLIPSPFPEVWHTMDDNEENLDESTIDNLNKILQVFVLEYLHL
How it was run: as §1

[1] = system: SIRPα signalling induced by Raji cells; assay: Assay B: SIRPα signalling assay using Raji cells; assay type: cell-based, human
How it was run: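 SIRPα signalling induced by Raji cells in a PathHunter reporter line, read as β-galactosidase complementation luminescence. Detection reagent 1 added for 15 min, then reagent 2 for 60 min in the dark, both at room temperature.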

[2] = system: SIRPα signalling induced by A549 cells; assay: Assay B: SIRPα signalling assay using A549 cells; assay type: cell-based, human
How it was run: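 5000 Raji or A549 cells were cultured 48 h at 37 °C with serially diluted compound (DMSO), then 15000 Jurkat PathHunter SIRPα reporter cells were added for 5 h. Beta-galactosidase luminescence was developed at RT, and IC50 obtained by 4-parameter sigmoidal fit.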

Caco-2 cells = assay: Assay C: permeability in CACO-2 cells; assay type: in vitro ADME; conditions: for Permeability A-B: Caco-2, apical to basolateral; for efflux ratio: Caco-2
How it was run: (§2)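 Compound in transport solution applied to apical or basolateral donor side for A-B or B-A permeability, 3 filter replicates. Donor sampled at start and end, receiver at intervals up to 2 hours with volume replaced; concentrations by HPLC-MS/MS or scintillation counting.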

[3] = Assay C: permeability in CACO-2 cells; assay type: in vitro ADME; conditions: human, pH 7.2, compounds of the invention, Table 7; for Papp A→B: Caco-2, apical to basolateral; for efflux ratio: Caco-2
How it was run: as §2

[4] = compounds of the invention, Table 2
[5] = compounds of the invention, Table 7
[6] = prior art compounds, Table 5, read-out: Inhibition of SIRPα signalling induced by Raji cells: IC50
[7] = prior art compounds, Table 5, read-out: Inhibition of SIRPα signalling induced by A549 cells: IC50
[8] = Homo sapiens, compounds of the invention, Table 4, read-out: Inhibition of SIRα signalling induced by Raji cells: IC50
[9] = Homo sapiens, prior art compounds, Table 5, read-out: Inhibition of SIRPα signalling induced by Raji cells: IC50
[10] = Homo sapiens, compounds of the invention, Table 4, read-out: Inhibition of SIRα signalling induced by A549 cells: IC50
[11] = Homo sapiens, prior art compounds, Table 5, read-out: Inhibition of SIRPα signalling induced by A549 cells: IC50

Sequence of QPCTL (Q9NXS2 whole entry): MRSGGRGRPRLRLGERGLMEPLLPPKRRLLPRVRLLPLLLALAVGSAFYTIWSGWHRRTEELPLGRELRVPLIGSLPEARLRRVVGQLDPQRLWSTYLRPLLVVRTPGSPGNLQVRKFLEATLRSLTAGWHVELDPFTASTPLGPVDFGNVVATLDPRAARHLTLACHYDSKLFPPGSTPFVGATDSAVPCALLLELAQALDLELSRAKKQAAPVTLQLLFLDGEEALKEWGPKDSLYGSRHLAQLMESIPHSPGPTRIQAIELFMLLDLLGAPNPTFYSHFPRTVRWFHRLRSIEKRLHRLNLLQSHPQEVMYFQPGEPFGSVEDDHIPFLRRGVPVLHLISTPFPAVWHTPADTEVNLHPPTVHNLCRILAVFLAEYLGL

| Structure (SMILES) | IC50 (QPCTL; [4]) | IC50 (QPCT; [4]) | IC50 [1, 8] | IC50 [2, 10] | Papp A→B [3] | efflux ratio [3] | also measured |
| --- | --- | --- | --- | --- | --- | --- | --- |
| CNC(=O)c1cncc(-c2cccc(C#N)c2N2CCC(c3nncn3C)CC2)c1 [Example 80] | 2 nM | 11 nM |  |  |  |  | IC50 ([1]; compounds of the invention, Table 4, read-out: Inhibition of SIRα signalling induced by Raji cells: IC50): 336 nM; IC50 ([2]; compounds of the invention, Table 4, read-out: Inhibition of SIRα signalling induced by A549 cells: IC50): 176 nM; Permeability A-B (Caco-2 cells; [5]): 0.2 10^−6 cm/s; efflux ratio (Caco-2 cells; [5]): 37.8 |
| Cn1cnnc1C1CCN(c2ncccc2-c2ccc(F)nc2)CC1 [SEN177, reference compound] |  |  |  |  |  |  | IC50 [1, 6]: 1360 nM; IC50 [2, 7]: 214 nM; Permeability A-B (Caco-2 cells; prior art compounds, Table 8): 11.0 10^−6 cm/s |
| COCCOc1ncc(-c2cccc(C#N)c2N2CCC(c3nncn3C)CC2)cn1 [compound 3, reference compound] | 11 nM | 51 nM | 629 nM | 290 nM | 0.6 ×10⁻⁶ cm/s | 41.8 | IC50 [1, 9]: 2740 nM; IC50 [2, 11]: 1400 nM; Permeability A-B (Caco-2 cells; prior art compounds, Table 8): 93 10^−6 cm/s; efflux ratio (Caco-2 cells; prior art compounds, Table 8): 0.8 |
| Cn1cnnc1C1CCN(c2c(C#N)cccc2-c2cncc(-n3cccn3)c2)CC1 [compound 6, reference compound] | 1 nM | 7 nM | 220 nM | 26 nM | 3.9 ×10⁻⁶ cm/s | 16.9 | IC50 (QPCTL; prior art compounds, Table 3): 1 nM; IC50 [1, 9]: 9 nM; IC50 [2, 11]: 14 nM; Permeability A-B (Caco-2 cells; prior art compounds, Table 8): 0.2 10^−6 cm/s; efflux ratio (Caco-2 cells; prior art compounds, Table 8): 65.0 |
| Cn1cnnc1C1(F)CCN(c2c(C#N)cccc2-c2cnc3nc(C(C)(C)C)cn3c2)CC1 [compound 71] | 2 nM | 1 nM | 49 nM | 27 nM | 2.7 ×10⁻⁶ cm/s | 24.4 |  |
| Cn1cnnc1C1(F)CCN(c2c(C#N)cccc2-c2cnc3nc(C(C)(C)C)nn3c2)CC1 [compound 72] | 1 nM | 1 nM | 28 nM | 20 nM | 3.9 ×10⁻⁶ cm/s | 14.4 |  |
| Cn1cnnc1C1(F)CCN(c2c(C#N)cccc2-c2cnc3nc(C(F)(F)F)nn3c2)CC1 [compound 73] | 4 nM | 8 nM | 261 nM | 122 nM | 3.3 ×10⁻⁶ cm/s | 14.8 |  |
| Cn1cnnc1C1(F)CCN(c2c(C#N)cccc2-c2cnc3nc(C(F)(F)F)cn3c2)CC1 [compound 74] | 1 nM | 1 nM | 18 nM | 26 nM | 1.7 ×10⁻⁶ cm/s | 14.1 |  |
| Cn1cnnc1C1(F)CCN(c2c(C#N)cccc2-c2cnc3nn(C(F)(F)F)cc3c2)CC1 [compound 75] | 1 nM | 1 nM | 7 nM | 7 nM | 12 ×10⁻⁶ cm/s | 4 |  |
| Cn1cnnc1C1CCN(c2c(C#N)cccc2-c2cncc3cnn(Cc4ccccc4)c23)CC1 [compound 76] | 1 nM | 5 nM | 40 nM | 46 nM | 2.6 ×10⁻⁶ cm/s | 22.3 |  |
| Cn1cnnc1C1CCN(c2c(C#N)cccc2-c2cncc3cn(Cc4ccccc4)nc23)CC1 [compound 77] | 30 nM | 88 nM | 374 nM | 1860 nM | 0.7 ×10⁻⁶ cm/s | 52.3 |  |
| Cc1cc(-c2cccc(C#N)c2N2CCC(F)(c3nncn3C)CC2)cnc1F [compound 82] | 2 nM | 3 nM | 63 nM | 17 nM | 41 ×10⁻⁶ cm/s | 1.6 |  |
| Nc1ncc(C2CCN(c3ncccc3-c3ccc(F)nc3)CC2)s1 [compound 1094, reference compound] |  |  |  |  |  |  | IC50 (QPCTL; prior art compounds, Table 3): 111 nM; IC50 (QPCT; prior art compounds, Table 3): 1710 nM; IC50 [1, 6]: 3240 nM; IC50 [2, 7]: 3060 nM; Permeability A-B (Caco-2 cells; prior art compounds, Table 8): 68 10^−6 cm/s; efflux ratio (Caco-2 cells; prior art compounds, Table 8): 0.5 |
| Nc1nnc(C2CCN(c3ncccc3-c3ccc(F)nc3)CC2)s1 [compound 1095, reference compound] |  |  |  |  |  |  | IC50 (QPCTL; prior art compounds, Table 3): 13 nM; IC50 (QPCT; prior art compounds, Table 3): 260 nM; IC50 [1, 6]: 2200 nM; IC50 [2, 7]: 259 nM; Permeability A-B (Caco-2 cells; prior art compounds, Table 8): 73 10^−6 cm/s; efflux ratio (Caco-2 cells; prior art compounds, Table 8): 1.0 |

Second part, led by results:

| IC50 (QPCTL; [4]) | IC50 (QPCT; [4]) | IC50 [1, 8] | IC50 [2, 10] | Papp A→B [3] | efflux ratio [3] | Structure (SMILES) | also measured |
| --- | --- | --- | --- | --- | --- | --- | --- |
| 5 nM | 2 nM | 79 nM | 74 nM | 14 ×10⁻⁶ cm/s | 2.4 | Cn1cnnc1C1(F)CCN(c2c(C#N)cccc2-c2cnn3ncccc23)CC1 [compound 70] |  |
| 34 nM | 42 nM | 456 nM | 440 nM | 6.5 ×10⁻⁶ cm/s | 7.4 | Cn1cnnc1C1(F)CCN(c2c(C#N)cccc2-c2cncc3cn(Cc4ccccc4)nc23)CC1 [compound 78] |  |
| 2 nM | 3 nM | 16 nM | 22 nM | 40 ×10⁻⁶ cm/s | 0.7 | Cn1cnnc1C1(F)CCN(c2c(C#N)cccc2-c2cnn3nc(-c4cccc(Cl)c4)ccc23)CC1 [compound 79] |  |
| 1 nM | 5 nM | 27 nM | 27 nM | 39 ×10⁻⁶ cm/s | 0.7 | Cn1cnnc1C1CCN(c2c(C#N)cccc2-c2cnn3nc(-c4cccc(Cl)c4)ccc23)CC1 [compound 81] |  |
| 1 nM | 3 nM | 102 nM | 47 nM | 55 ×10⁻⁶ cm/s | 1.3 | Cc1cc(F)ncc1-c1cccc(C#N)c1N1CCC(F)(c2nncn2C)CC1 [compound 83] |  |
| 3 nM | 6 nM | 91 nM | 63 nM | 33 ×10⁻⁶ cm/s | 1.8 | Cn1cnnc1C1(F)CCN(c2c(C#N)cccc2-c2cnc3nc(-c4cccc(Cl)c4)ccn23)CC1 [compound 84] |  |
| 3 nM | 4 nM | 70 nM | 80 nM |  | 1.8 | Cn1cnnc1C1(F)CCN(c2c(C#N)cccc2-c2cnc(F)cc2Cl)CC1 [compound 85] |  |
| 1 nM | 1 nM | 13 nM | 23 nM | 18 ×10⁻⁶ cm/s | 1.6 | Cn1cnnc1C1(F)CCN(c2c(C#N)cccc2-c2cnc3nn(C(C)(C)C)c(Cl)c3c2)CC1 [compound 86] |  |

— patent US20240246981A1, “[…] DERIVATIVES AS INHIBITORS OF […]-PEPTIDE CYCLOTRANSFERASE AND […]-PEPTIDE CYCLOTRANSFERASE LIKE PROTEIN” (Boehringer Ingelheim International GmbH, priority 2022, published 2024)
